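Step 1: Grow cells in 96-well plates. Step 2: Expose to compound for 48 hours at 5 concentrations. Step 3: Interpolate endpoints linearly; if unreached, use highest concentration. TGI is the concentration that stops growth completely.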
Columns and labels:
Assay in all cases: NCI-60 cell line screen, 48 h
[1] = system: 786-0 renal
[2] = system: A498 renal
[3] = system: A549 NSCLC
[4] = system: ACHN renal
[5] = system: BT-549 breast
[6] = system: CAKI-1 renal
[7] = system: CCRF-CEM leukemia
[8] = system: COLO 205 colon
[9] = system: DU-145 prostate
[10] = system: EKVX NSCLC
[11] = system: HCC-2998 colon
[12] = system: HCT-116 colon
[13] = system: HCT-15 colon
[14] = system: HL-60(TB) leukemia
[15] = system: HOP-62 NSCLC
[16] = system: HS 578T breast
[17] = system: HT29 colon
[18] = system: IGROV1 ovarian
[19] = system: K-562 leukemia
[20] = system: KM12 colon
[21] = system: LOX IMVI melanoma
[22] = system: M14 melanoma
[23] = system: MALME-3M melanoma
[24] = system: MCF7 breast
[25] = system: MDA-MB-231 breast
[26] = system: MDA-MB-435
[27] = system: MDA-N
[28] = system: MOLT-4 leukemia
[29] = system: NCI-H226 lung
[30] = system: NCI-H23 lung
[31] = system: NCI-H460 lung
[32] = system: NCI-H522 lung
[33] = system: NCI/ADR-RES ovarian
[34] = system: OVCAR-3 ovarian
[35] = system: OVCAR-4 ovarian
[36] = system: OVCAR-5 ovarian
[37] = system: OVCAR-8 ovarian
[38] = system: PC-3 prostate
[39] = system: RPMI-8226 leukemia
[40] = system: RXF 393 renal
[41] = system: SF-268 CNS
[42] = system: SF-295 CNS
[43] = system: SF-539 CNS
[44] = system: SK-MEL-2 melanoma
[45] = system: SK-MEL-28 melanoma
[46] = system: SK-MEL-5 melanoma
[47] = system: SK-OV-3 ovarian
[48] = system: SN12C renal
[49] = system: SNB-19 CNS
[50] = system: SNB-75 CNS
[51] = system: SW-620 colon
[52] = system: T-47D breast
[53] = system: TK-10 renal
[54] = system: U251 CNS
[55] = system: UACC-257 melanoma
[56] = system: UACC-62 melanoma
[57] = system: UO-31 renal
[58] = system: HOP-92 NSCLC

`COc1cccc(/C=N/[N+](C)(C)C)c1O` showed a TGI [1] of over 10 µM, a TGI [2] of over 10 µM and a TGI [3] of over 10 µM. The TGI [4] was over 10 µM, the TGI [5] was over 10 µM and the TGI [6] was over 10 µM. For the same compound, the TGI [7] was over 10 µM, the TGI [8] was over 10 µM and the TGI [9] was over 10 µM. It also gave a TGI [10] of over 10 µM, a TGI [11] of over 10 µM and a TGI [12] of over 10 µM. It also gave a TGI [13] of over 10 µM, a TGI [14] of over 10 µM and a TGI [15] of over 10 µM. It also gave a TGI [16] of over 10 µM, a TGI [17] of over 10 µM and a TGI [18] of over 10 µM. The TGI [19] was over 10 µM, the TGI [20] was over 10 µM and the TGI [21] was over 10 µM. For the same compound, the TGI [22] was over 10 µM, the TGI [23] was over 10 µM and the TGI [24] was over 10 µM. For the same compound, the TGI [25] was over 10 µM, the TGI [26] was over 10 µM and the TGI [27] was over 10 µM. It also gave a TGI [28] of over 10 µM, a TGI [29] of over 10 µM and a TGI [30] of over 10 µM. It also gave a TGI [31] of over 10 µM, a TGI [32] of over 10 µM and a TGI [33] of over 10 µM. For the same compound, the TGI [34] was over 10 µM, the TGI [35] was over 10 µM and the TGI [36] was over 10 µM. It also gave a TGI [37] of over 10 µM, a TGI [38] of over 10 µM and a TGI [39] of over 10 µM. For the same compound, the TGI [40] was over 10 µM, the TGI [41] was over 10 µM and the TGI [42] was over 10 µM. For the same compound, the TGI [43] was over 10 µM, the TGI [44] was over 10 µM and the TGI [45] was over 10 µM. For the same compound, the TGI [46] was over 10 µM, the TGI [47] was over 10 µM and the TGI [48] was over 10 µM. For the same compound, the TGI [49] was over 10 µM, the TGI [50] was over 10 µM and the TGI [51] was over 10 µM. It also gave a TGI [52] of over 10 µM, a TGI [53] of over 10 µM and a TGI [54] of over 10 µM. The TGI [55] was over 10 µM, the TGI [56] was over 10 µM and the TGI [57] was over 10 µM.
In the case of `CN(C)Cc1nsc(N(C)C)n1`, the TGI [1] is reported as over 100 µM, the TGI [2] is reported as over 100 µM and the TGI [3] is reported as over 100 µM. The TGI [4] was over 100 µM, the TGI [5] was over 100 µM and the TGI [6] was over 100 µM. It also gave a TGI [8] of over 100 µM, a TGI [9] of over 100 µM and a TGI [10] of over 100 µM. For the same compound, the TGI [12] was over 100 µM, the TGI [13] was over 100 µM and the TGI [15] was over 100 µM. For the same compound, the TGI [58] was over 100 µM, the TGI [16] was over 100 µM and the TGI [17] was over 100 µM. For the same compound, the TGI [18] was over 100 µM, the TGI [19] was over 100 µM and the TGI [20] was over 100 µM. It also gave a TGI [21] of over 100 µM, a TGI [22] of over 100 µM and a TGI [23] of over 100 µM. For the same compound, the TGI [24] was over 100 µM, the TGI [25] was over 100 µM and the TGI [26] was over 100 µM. For the same compound, the TGI [27] was over 100 µM, the TGI [29] was over 100 µM and the TGI [30] was over 100 µM. It also gave a TGI [31] of over 100 µM, a TGI [32] of over 100 µM and a TGI [33] of over 100 µM. For the same compound, the TGI [34] was over 100 µM, the TGI [35] was over 100 µM and the TGI [36] was over 100 µM. The TGI [37] was over 100 µM, the TGI [38] was over 100 µM and the TGI [39] was over 100 µM. It also gave a TGI [40] of over 100 µM, a TGI [41] of over 100 µM and a TGI [42] of over 100 µM. The TGI [43] was over 100 µM, the TGI [44] was over 100 µM and the TGI [45] was over 100 µM. For the same compound, the TGI [46] was over 100 µM, the TGI [47] was over 100 µM and the TGI [48] was over 100 µM. It also gave a TGI [49] of over 100 µM, a TGI [50] of over 100 µM and a TGI [51] of over 100 µM. It also gave a TGI [52] of over 100 µM, a TGI [53] of over 100 µM and a TGI [54] of over 100 µM. For the same compound, the TGI [55] was over 100 µM, the TGI [56] was over 100 µM and the TGI [57] was over 100 µM.
Compound `CCCCCCCCCCCC(=O)OCC(O)CO` (stereo not drawn) has a TGI [1] of over 100 µM, a TGI [2] of over 100 µM and a TGI [3] of over 100 µM. It also gave a TGI [4] of over 100 µM, a TGI [5] of over 100 µM and a TGI [6] of over 100 µM. The TGI [7] was over 100 µM, the TGI [8] was over 100 µM and the TGI [9] was over 100 µM. The TGI [10] was over 100 µM, the TGI [12] was over 100 µM and the TGI [13] was over 100 µM. The TGI [14] was 42.3 µM, the TGI [15] was over 100 µM and the TGI [58] was over 100 µM. For the same compound, the TGI [16] was over 100 µM, the TGI [17] was over 100 µM and the TGI [20] was 75.6 µM. It also gave a TGI [21] of over 100 µM, a TGI [22] of over 100 µM and a TGI [24] of over 100 µM. For the same compound, the TGI [25] was over 100 µM, the TGI [26] was over 100 µM and the TGI [27] was over 100 µM. For the same compound, the TGI [28] was over 100 µM, the TGI [29] was over 100 µM and the TGI [30] was over 100 µM. For the same compound, the TGI [31] was over 100 µM, the TGI [32] was over 100 µM and the TGI [33] was over 100 µM. For the same compound, the TGI [34] was over 100 µM, the TGI [35] was over 100 µM and the TGI [36] was over 100 µM. The TGI [37] was over 100 µM, the TGI [38] was over 100 µM and the TGI [41] was over 100 µM. The TGI [42] was over 100 µM, the TGI [43] was over 100 µM and the TGI [44] was over 100 µM. For the same compound, the TGI [45] was over 100 µM, the TGI [46] was over 100 µM and the TGI [47] was over 100 µM. It also gave a TGI [48] of over 100 µM, a TGI [49] of over 100 µM and a TGI [50] of over 100 µM. It also gave a TGI [51] of over 100 µM, a TGI [52] of over 100 µM and a TGI [53] of over 100 µM. For the same compound, the TGI [54] was over 100 µM, the TGI [55] was over 100 µM and the TGI [56] was over 100 µM. The TGI [57] was over 100 µM.
`C[C@]12CC/C(=N\OCCN3CCCC3)C=C1CCC1C2CC[C@@]2(C)C1CC[C@]2(C)O` (stereo partly drawn) gave a TGI [1] of 14.8 µM, a TGI [2] of 4.7 µM and a TGI [3] of 42.5 µM. It also gave a TGI [4] of 50.3 µM, a TGI [5] of 28.2 µM and a TGI [6] of 24.1 µM. The TGI [7] was 9.6 µM, the TGI [8] was 11.9 µM and the TGI [9] was 39.5 µM. For the same compound, the TGI [10] was 34 µM, the TGI [11] was 24.3 µM and the TGI [12] was 18 µM. It also gave a TGI [13] of 15 µM, a TGI [15] of 50 µM and a TGI [58] of 32.3 µM. The TGI [16] was 43.7 µM, the TGI [17] was 5.69 µM and the TGI [18] was 35.9 µM. The TGI [19] was 14.2 µM, the TGI [20] was 19.1 µM and the TGI [21] was 15.1 µM. The TGI [22] was 37.1 µM, the TGI [23] was 18.7 µM and the TGI [24] was over 100 µM. It also gave a TGI [25] of 34 µM, a TGI [26] of 6.67 µM and a TGI [27] of 6.33 µM. The TGI [28] was 12.6 µM, the TGI [29] was 11.8 µM and the TGI [30] was 35.8 µM. The TGI [31] was 16.3 µM, the TGI [32] was 8.57 µM and the TGI [33] was 15.4 µM. The TGI [34] was 24.1 µM, the TGI [35] was 82.4 µM and the TGI [36] was over 100 µM. It also gave a TGI [37] of 31.6 µM, a TGI [38] of 71.7 µM and a TGI [39] of 14 µM. For the same compound, the TGI [40] was 75.5 µM, the TGI [41] was 31.9 µM and the TGI [42] was 12.3 µM. The TGI [43] was 22.9 µM, the TGI [44] was 44.2 µM and the TGI [46] was 29.9 µM. It also gave a TGI [47] of 44.5 µM, a TGI [48] of 21.3 µM and a TGI [49] of 49 µM. The TGI [50] was 11.9 µM, the TGI [52] was 64 µM and the TGI [53] was 37 µM. The TGI [54] was 20.2 µM, the TGI [55] was 17.8 µM and the TGI [56] was 11.8 µM. For the same compound, the TGI [57] was 24.4 µM.
